Consider 11 compounds from patent US6706740B2, “Fungicidal heterocyclic aromatic amides and their compositions, methods of use and preparation” (Dow AgroSciences LLC, priority 1999, dated 2004).

Like-named read-outs stand apart in the source and are kept apart here.

Assay [1] relates to Phytophthora infestans—PHYTIN. The assay is described as follows: whole plant or invertebrate. The class given is in vivo. Conditions: for pest or weed control at 100 ppm: Phytophthora, in Solanum lycopersicum, 24 h, read-out: PHYTIN in vivo 1 Day Protectant.
Assay [2] has as its system Leptosphaeria nodorum—LEPTNO. The assay is described as follows: Glume Blotch of Wheat, in vivo whole plant, 24 Hour Protectant.
In assay [3] the test system is Mycosphaerella graminicola (Septoria tritici—SEPTTR). The assay is described as follows: In vitro fungal growth inhibition, Mycosphaerella graminicola (SEPTTR). It counts as cell-based. To be noted: for inhibition at 25 ppm: Zymoseptoria tritici, read-out: SEPTTR in vitro Growth Inhibition.
For another assay, the system named is Erysiphe graminis—ERYSGT. The assay is described as follows: Powdery Mildew of Wheat, in vivo whole plant, 24 Hour Protectant.
Assay [4] has as its system Magnaporthe grisea (Pyricularia oryzae—PYRIOR). The assay is described as follows: microbe, parasite or virus in culture. The class given is cell-based. To be noted: for inhibition at 25 ppm: Pyricularia oryzae, read-out: PYRIOR in vitro Growth Inhibition.
The test system of assay [5] is Rhizoctonia solani (RHIZSO). The assay can be described thus: microbe, parasite or virus in culture. The class given is cell-based. Conditions: for inhibition at 25 ppm: Rhizoctonia solani, read-out: RHIZSO in vitro Growth Inhibition.
In a further assay the test system is Septoria tritici—SEPTTR. The assay is described as follows: Leaf Blotch of Wheat, in vivo whole plant, 24 Hour Protectant.
In a further assay the test system is Ustilago maydis (USTIMA). The assay is described as follows: microbe, parasite or virus in culture. It counts as cell-based. To be noted: for inhibition at 25 ppm: Mycosarcoma maydis, read-out: USTIMA in vitro Growth Inhibition.
For assay [6], the system named is Stagonospora nodorum (Leptosphaeria nodorum—LEPTNO). The assay is described as follows: In vitro fungal growth inhibition, Stagonospora nodorum (LEPTNO). The class given is cell-based. Conditions: for inhibition at 25 ppm: Leptosphaeria, read-out: LEPTNO in vitro Growth Inhibition.
Assay [7] has as its system Phytophthora infestans (PHYTIN). The assay can be described thus: microbe, parasite or virus in culture. It counts as cell-based. Conditions: for inhibition at 25 ppm: Phytophthora infestans, read-out: PHYTIN in vitro Growth Inhibition.
Assay [8] deals with Puccinia recondita—PUCCRT. The assay is described as follows: Brown Rust of Wheat, in vivo whole plant, 24 Hour Protectant.
Where [9] appears, read: 100 ppm spray, wheat, 24 hour protectant, % control of fungal infection vs untreated plants.
Setting [10] is: Erysiphe; 100 ppm spray, wheat, 24 hour protectant, % control of fungal infection vs untreated plants; read-out: ERYSGT in vivo 1 Day Protectant.
Setting [11] is: Leptosphaeria; 100 ppm spray, wheat, 24 hour protectant; control of fungal infection vs untreated plants; read-out: LEPTNO in vivo 1 Day Protectant.
Setting [12] is: Erysiphe; 100 ppm spray, wheat, 24 hour protectant; control of fungal infection vs untreated plants; read-out: ERYSGT in vivo 1 Day Protectant.
Where [13] appears, read: Zymoseptoria tritici, 24 h, 100 ppm spray, wheat, 24 hour protectant; control of fungal infection vs untreated plants; read-out: SEPTTR in vivo 1 Day Protectant.
Setting [14] is: Puccinia; 100 ppm spray, wheat, 24 hour protectant; control of fungal infection vs untreated plants; read-out: PUCCRT in vivo 1 Day Protectant.
Where [15] appears, read: Leptosphaeria; 100 ppm spray, 24 hour protectant, wheat; control of fungal infection vs untreated plants; read-out: LEPTNO in vivo 1 Day Protectant.
Where [16] appears, read: Erysiphe; 100 ppm spray, 24 hour protectant, wheat; control of fungal infection vs untreated plants; read-out: ERYSGT in vivo 1 Day Protectant.
[17] abbreviates: 100 ppm spray, 24 hour protectant, wheat; control of fungal infection vs untreated plants.
The mark [18] stands for this setting: Puccinia; 100 ppm spray, 24 hour protectant, wheat; control of fungal infection vs untreated plants; read-out: PUCCRT in vivo 1 Day Protectant.
The mark [19] stands for this setting: Zymoseptoria tritici, 24 h, 100 ppm spray, 24 hour protectant, wheat; control of fungal infection vs untreated plants; read-out: SEPTTR in vivo 1 Day Protectant.

Consider `COc1ccc(C(=O)Oc2c(OC)ccnc2C(=O)N[C@H]2COC(=O)[C@H](Cc3ccccc3)[C@@H](OC(=O)C(C)C)[C@H](C)OC2=O)cc1` [Compound 634], for which the pest or weed control at 100 ppm (in assay [1]; in the assay on Erysiphe graminis—ERYSGT (setting [10])) was under 25% each time. The “LEPTNO in vivo 1 Day Protectant” value in assay [2] (setting [9]) is recorded as “+ +”. The inhibition at 25 ppm (in assay [3] (25 ppm in growth medium); in [4]; in assay [5]; in the assay with Ustilago maydis (USTIMA); in assay [6] (25 ppm in growth medium); in assay [7]) was under 80% each time. The “SEPTTR in vivo 1 Day Protectant” value with Septoria tritici—SEPTTR (setting [9]) was “+ +”. The “PUCCRT in vivo 1 Day Protectant” value in assay [8] (setting [9]) is “+ +”.
With `COCCC(=O)Oc1c(OC)ccnc1C(=O)Nc1ccc(C(=O)Oc2cccc(C(F)(F)F)c2)cc1` [Compound 716], the pest or weed control at 100 ppm in assay [1] is under 25%; in assay [2] (Leptosphaeria; 100 ppm spray, wheat, 24 hour protectant, % control of fungal infection vs untreated plants; read-out: LEPTNO in vivo 1 Day Protectant), 25 to 74%; in the assay on Erysiphe graminis—ERYSGT (setting [10]), under 25%; in the assay with Septoria tritici—SEPTTR (Zymoseptoria tritici, 24 h, 100 ppm spray, wheat, 24 hour protectant, % control of fungal infection vs untreated plants; read-out: SEPTTR in vivo 1 Day Protectant), 25 to 74%; in [8] (Puccinia; 100 ppm spray, wheat, 24 hour protectant, % control of fungal infection vs untreated plants; read-out: PUCCRT in vivo 1 Day Protectant) it was 25 to 74%. Moreover, the inhibition at 25 ppm (in assay [3] (25 ppm in growth medium); in assay [4]; in [5]; in the assay with Ustilago maydis (USTIMA); in assay [6] (25 ppm in growth medium); in assay [7]) was under 80% each time.
`COc1ccnc(C(=O)Nc2ccc(C(=O)Oc3ccc(C(F)(F)F)cc3)cc2)c1O` [Compound 452]: the pest or weed control at 100 ppm was under 25% in [1]; 25 to 74% in assay [2] (setting [11]); under 25% in the assay on Erysiphe graminis—ERYSGT (setting [12]); 25 to 74% in the assay on Septoria tritici—SEPTTR (setting [13]); under 25% in [8] (setting [14]). The inhibition at 25 ppm (in assay [3] (25 ppm in growth medium); in assay [4]; in [5]; with Ustilago maydis (USTIMA); in assay [6] (25 ppm in growth medium); in [7]) was under 80% throughout.
Regarding `COC(=O)C(COC(=O)COCc1ccccc1)NC(=O)c1nccc(OC)c1O` (stereo not shown) [Compound 346], the pest or weed control at 100 ppm was under 25% in assay [1]; under 25% in [2] (setting [11]); under 25% in the assay on Erysiphe graminis—ERYSGT (setting [12]); 25 to 74% in the assay with Septoria tritici—SEPTTR (setting [13]); 25 to 74% in assay [8] (setting [14]). In addition, the inhibition at 25 ppm in assay [3] (25 ppm in growth medium) is under 80%; in assay [4] it was under 80%; in assay [5], under 80%; in the assay on Ustilago maydis (USTIMA), under 80%; in assay [6] (25 ppm in growth medium), under 80%; in [7], over 80%.
For `COc1ccnc(C(=O)NCC#Cc2ccccc2)c1O` [Compound 240], the pest or weed control at 100 ppm was under 25% in assay [1], 25 to 74% in assay [2] (setting [15]), under 25% in the assay on Erysiphe graminis—ERYSGT (setting [16]) and under 25% in assay [8] (setting [18]). The inhibition at 25 ppm (in assay [3] (25 ppm in growth medium); in [4]; in assay [5]; with Ustilago maydis (USTIMA); in assay [6] (25 ppm in growth medium); in [7]) was under 80% throughout. In the assay with Septoria tritici—SEPTTR (setting [17]), the “SEPTTR in vivo 1 Day Protectant” value is reported as “+ +”.
`COc1ccnc(C(=O)N[C@@H]2CC(C)(C)C[C@](C)(C(=O)N(C)CCc3ccccc3)C2)c1O` [Compound 263]: the “PHYTIN in vivo 1 Day Protectant” value in assay [1] (100 ppm spray, 24 hour protectant, tomato, control of fungal infection vs untreated plants) is given as “− (<25% control of fungal infection)”. For the same compound, the “LEPTNO in vivo 1 Day Protectant” value in [2] (setting [17]) was “+ (25-74% control of fungal infection)”. In addition, in assay [3] (25 ppm in growth medium), the “SEPTTR in vitro Growth Inhibition” value is “− (less than 80% growth inhibition)”. Further, the “ERYSGT in vivo 1 Day Protectant” value with Erysiphe graminis—ERYSGT (setting [17]) is “− (<25% control of fungal infection)”. In [4] (25 ppm in growth medium), the “PYRIOR in vitro Growth Inhibition” value is given as “− (less than 80% growth inhibition)”. The “RHIZSO in vitro Growth Inhibition” value in assay [5] is reported as “− (key: +: at least 80% growth inhibition; −: less than 80% growth inhibition)”. The “SEPTTR in vivo 1 Day Protectant” value in the assay with Septoria tritici—SEPTTR (setting [17]) was “− (<25% control of fungal infection)”. In addition, in the assay with Ustilago maydis (USTIMA), the “USTIMA in vitro Growth Inhibition” value is on record as “− (key: +: at least 80% growth inhibition; −: less than 80% growth inhibition)”. Besides, the “LEPTNO in vitro Growth Inhibition” value in assay [6] (25 ppm in growth medium) is listed as “− (less than 80% growth inhibition)”. Moreover, in [7] (25 ppm in growth medium), the “PHYTIN in vitro Growth Inhibition” value is reported as “− (less than 80% growth inhibition)”. Moreover, in assay [8] (setting [17]), the “PUCCRT in vivo 1 Day Protectant” value is “− (<25% control of fungal infection)”.
With `COc1ccnc(C(=O)Nc2ccc(Oc3ccc(C(F)(F)F)cc3)cc2)c1O` [Compound 425, 3-HYDROXY-4-METHOXY-N-(4-(4-TRIFLUOROMETHYLPHENOXY)PHENYL)-PYRIDINE-2-CARBOXAMIDE], the pest or weed control at 100 ppm in [1] was 25 to 74%; in [2] (setting [11]), under 25%; in the assay with Erysiphe graminis—ERYSGT (setting [12]) it was under 25%; with Septoria tritici—SEPTTR (setting [13]), 25 to 74%; in assay [8] (setting [14]), 25 to 74%. Besides, the inhibition at 25 ppm in [3] (25 ppm in growth medium) is over 80%; in [4], over 80%; in assay [5], over 80%; with Ustilago maydis (USTIMA) it was under 80%; in assay [6] (25 ppm in growth medium), over 80%; in assay [7], under 80%.
As to `COc1ccnc(C(=O)NC(COC(=O)C(Cc2ccccc2)C(C)O[Si](C)(C)C(C)(C)C)C(=O)OC(C)C)c1O` (stereo not shown) [Compound 357], the pest or weed control at 100 ppm in assay [1] was under 25%; in assay [2] (setting [11]), 25 to 74%; in the assay on Erysiphe graminis—ERYSGT (setting [12]), under 25%; with Septoria tritici—SEPTTR (setting [13]) it was under 25%. For the same compound, the inhibition at 25 ppm (in assay [3]; in [4]; in [5]; with Ustilago maydis (USTIMA); in assay [6]; in assay [7]) was under 80% each time. Also, in [8] (100 ppm spray, wheat, 24 hour protectant; control of fungal infection vs untreated plants), the “PUCCRT in vivo 1 Day Protectant” value is “+ +”.
For the compound `O=C(NCCc1ccc(Cl)cc1)c1ncccc1O` [Compound 233, N-(2-(4-CHLOROPHENYL)ETHYL)-3-HYDROXYPYRIDINE-2-CARBOXAMIDE], the pest or weed control at 100 ppm in assay [1] is under 25%; in [2] (setting [15]) it was under 25%; with Erysiphe graminis—ERYSGT (setting [16]) it was under 25%; in the assay on Septoria tritici—SEPTTR (setting [19]), 25 to 74%; in assay [8] (setting [18]), under 25%. The inhibition at 25 ppm is over 80% in [3] (25 ppm in growth medium); over 80% in assay [4]; under 80% in [5]; over 80% with Ustilago maydis (USTIMA); over 80% in assay [6] (25 ppm in growth medium); over 80% in [7].
On to `COc1ccnc(C(=O)NC2C[C@H](C)O[C@@](C)(Cc3ccccc3)C2)c1O` (stereo partly shown) [Compound 312], for which the pest or weed control at 100 ppm in assay [1] is under 25%; in [2] (setting [15]), 25 to 74%; in the assay on Erysiphe graminis—ERYSGT (setting [16]), 25 to 74%; with Septoria tritici—SEPTTR (setting [19]), 25 to 74%; in assay [8] (setting [18]), under 25%. Further, the inhibition at 25 ppm (in [3] (25 ppm in growth medium); in assay [4]; in assay [5]; in the assay with Ustilago maydis (USTIMA); in [6] (25 ppm in growth medium); in assay [7]) was under 80% throughout.
For the compound `CCC(C)C(=O)O[C@H]1[C@H](C)OC(=O)[C@@H](NC(=O)c2nccc(OC)c2OC(C)=O)COC(=O)[C@@H]1Cc1ccccc1` (stereo partly shown) [Compound 701], in assay [1], the pest or weed control at 100 ppm was under 25%. Besides, the “LEPTNO in vivo 1 Day Protectant” value in assay [2] (setting [9]) was “+ +”. Also, the inhibition at 25 ppm was over 80% in assay [3] (25 ppm in growth medium); under 80% in [4]; under 80% in [5]; under 80% with Ustilago maydis (USTIMA); over 80% in assay [6] (25 ppm in growth medium); under 80% in assay [7]. Moreover, in the assay with Erysiphe graminis—ERYSGT (setting [9]), the “ERYSGT in vivo 1 Day Protectant” value is given as “+ +”. In addition, the “SEPTTR in vivo 1 Day Protectant” value in the assay with Septoria tritici—SEPTTR (setting [9]) is on record as “+ +”. Further, in [8] (setting [9]), the “PUCCRT in vivo 1 Day Protectant” value was “+ +”.
